Here are results for 16 compounds from patent US20040009464A1, “Methods for identifying compounds for inhibition of neoplastic lesions, and pharmacetical compositions containing such compounds” (priority 1998, published 2004).

pEC50, pIC50: −log10 of the molar value. Where two headings read alike, the source gives them in different places.

Experiment [1] deals with T1, cGMP binding sites of GST-cGB-PDE5 fusion protein (Homo sapiens, UniProt O76074).
T1 construct: made in house; host or cells: E. coli BL21 (DE3)
Kind of experiment: cGMP binding assay with GST-cGB-PDE5 fusion protein.

Experiment [2] concerns SW-480 colon adenocarcinoma cells. The experiment in a line: Apoptosis fold induction protocol (DNA fragmentation ELISA). It is filed as cell-based, human. The arrangement: key to the marks not given beside the values. The conditions noted are these: qualitative activity profile.
Experiment [3] deals with T2, purified cyclooxygenase (Type 1) from ram seminal vesicles (Ovis aries, UniProt P05979).
T2 sequence (P05979 25-600): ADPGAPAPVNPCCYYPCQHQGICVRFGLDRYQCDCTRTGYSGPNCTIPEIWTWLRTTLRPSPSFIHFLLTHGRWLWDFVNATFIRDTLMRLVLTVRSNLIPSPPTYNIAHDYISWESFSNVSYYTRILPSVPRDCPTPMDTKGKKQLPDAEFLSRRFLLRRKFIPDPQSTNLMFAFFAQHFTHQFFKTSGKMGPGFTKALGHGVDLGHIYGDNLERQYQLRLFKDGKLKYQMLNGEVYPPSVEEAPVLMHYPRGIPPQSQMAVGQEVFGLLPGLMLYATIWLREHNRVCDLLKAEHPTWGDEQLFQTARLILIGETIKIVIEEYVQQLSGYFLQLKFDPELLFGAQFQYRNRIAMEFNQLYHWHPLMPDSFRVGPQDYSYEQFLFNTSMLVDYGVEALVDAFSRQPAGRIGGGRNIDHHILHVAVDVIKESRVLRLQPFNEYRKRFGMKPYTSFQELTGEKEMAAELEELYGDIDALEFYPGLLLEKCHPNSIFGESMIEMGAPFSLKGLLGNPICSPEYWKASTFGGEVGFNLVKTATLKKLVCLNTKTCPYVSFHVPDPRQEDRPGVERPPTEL
The experiment in a line: COX inhibition assay with purified cyclooxygenase. The conditions noted are these: for COX-I inhibition: FIG. 5. The arrangement: COX Inhibition: key to the marks not given beside the values.

Experiment [4] addresses T3, PDE peak A (PDE5) from SW480 (Homo sapiens, UniProt O76074).
T3 construct: The novel PDE activity was first found in SW480 colon cancer cell lines; endogenous in cells; host or cells: SW480 colon cancer cells; DEAE-Trisacryl M fraction (peak A)
The experiment in a line: cGMP hydrolysis by PDE peak A (PDE5) isolated from SW480 cells. It is filed as biochemical.

Experiment [5] has as its system novel cGMP-specific PDE peak B from SW480. The experiment in a line: cGMP hydrolysis by novel cGMP-specific PDE peak B (Section IA) from SW480 cells. It is filed as biochemical, human. The conditions noted are these: for Ratio (IC50 Peak A/Peak B): cGMP hydrolysis.
The test system of a further experiment is HT-29 cells. Kind of experiment: Cyclic nucleotide (cGMP, cAMP) levels in HT-29 cells by radioimmunoassay. It is filed as cell-based, human. The conditions noted are these: for effect on cAMP levels: HT-29 cells.
The subject of experiment [6] is cGMP PDE purified from human colon HT-29 cultured tumor cells. The experiment in a line: cGMP PDE inhibition assay. It is filed as biochemical. The arrangement: PDE Inhibition: key to the marks not given beside the values.
The subject of experiment [7] is PDE4 purified from human colon HT-29 cultured tumor cells. The experiment in a line: PDE4 inhibition assay. It is filed as biochemical. The conditions noted are these: PDE4 from HT-29 cells. The protocol:
(Thompson, W. J., Teraski, W. L., Epstein, P. M., Strada, S. J., Advances in Cyclic Nucleotide Research, 10:69-92, 1979, which is incorporated herein by reference). […] The mixture is incubated at 30° C. for 10 minutes with isolated PDE of this invention. Reactions are terminated, for example, by boiling the reaction mixture for 75 seconds. After cooling on ice, 100 μl of 0.5 mg/mL snake venom (O. Hannah venom available from Sigma) is added and incubated for 10 minutes at 30° C. This reaction is then terminated by the addition of an alcohol, e.g. 1 mL of 100% methanol. Assay samples are applied to 1 mL Dowex 1-X8 column; and washed with 1 mL of 100% methanol. The amount of radioactivity in the breakthrough and the wash from the column is combined and measured with a scintillation counter. The degree of phosphodiesterase inhibition is determined by calculating the amount of radioactivity in drug-treated reactions and comparing against a control sample (a reaction mixture lacking the tested compound but with drug solvent).

For another experiment, the system named is HCT116, Colon. Kind of experiment: Growth inhibition, SRB assay, HCT116. The conditions noted are these: Homo sapiens, HCT-116. It is filed as cell-based. From the text: (§1) A compound's ability to inhibit tumor cell growth can be measured using the HT-29 human colon carcinoma cell line obtained from ATCC. HT-29 cells have previously been characterized as a relevant colon tumor cell culture model (Fogh, J., and Trempe, G. In. Human Tumor Cells in Vitro, J. Fogh (eds.), Plenum Press, New York, pp. 115-159, 1975). HT-29 cells are maintained in RPMI media supplemented with 5% fetal bovine calf serum (Gemini Bioproducts, Inc., Carlsbad, Calif.) and 2 mm glutamine, and 1% antibiotic-antimycotic in a humidified atmosphere of 95% air and 5% CO2 at 37° C. Briefly, HT-29 cells are plated at a density of 500 cells/well in 96 well microtiter plates and incubated for 24 hours at 37° C. prior to the addition of compound. […] After six days in culture, the cells are fixed by the addition of cold trichloroacetic acid to a final concentration of 10% and protein levels are measured using the sulforhodamine B (SRB) colorimetric protein stain assay as previously described by Skehan, P., Storeng, R., Scudiero, D., Monks, A., McMahon, J., Vistica, D., Warren, J. T., Bokesch, H., Kenney, S., and Boyd, M. R., “New Colorimetric Assay For Anticancer-Drug Screening,” J. Natl Cancer Inst. […]
(§2) To show the effectiveness of this screening method on various forms of neoplasia, compounds were tested on numerous cell lines. […] The IC50 values were determined by the SRB assay. […]

The next experiment deals with A-427, Lung. Kind of experiment: Growth inhibition, SRB assay, A-427. It is filed as cell-based. The conditions noted are these: Homo sapiens.
Source text: as §1, §2

Experiment [8] has as its system premalignant lesions in mouse mammary gland organ culture. The experiment in a line: Mammary gland organ culture model. It is filed as cell-based. The conditions noted are these: FIG. 17. From the text:
Test compounds identified by the above methods can be tested for antineoplastic activity by their ability to inhibit the incidence of pre-neoplastic lesions in a mammary gland organ culture system. This mouse mammary gland organ culture technique has been successfully used by other investigators to study the effects of known antineoplastic agents such as certain NSAIDs, retinoids, tamoxifen, selenium, and certain natural products, and is useful for validation of the screening method of the present invention.
For example, female BALB/c mice can be treated with a combination of estradiol and progesterone daily, in order to prime the glands to be responsive to hormones in vitro. The animals are sacrificed, and thoracic mammary glands are excised aseptically and incubated for ten days in growth media supplemented with insulin, prolactin, hydrocortisone, and aldosterone. DMBA (7,12-dimethylbenz(a)anthracene) is added to medium to induce the formation of premalignant lesions Fully developed glands are then deprived of prolactin, hydrocortisone, and aldosterone, resulting in the regression of the glands but not the pre-malignant lesions.
The test compound is dissolved in DMSO and added to the culture media for the duration of the culture period. At the end of the culture period, the glands are fixed in 10% formalin, stained with alum camine, and mounted on glass slides. The incidence of forming mammary lesions is the ratio of the glands with mammary lesions to […]. The incidence of mammary lesions in test compound treated glands is compared with that of the untreated glands.
The extent of the area occupied by the mammary lesions can be quantitated by projecting an image of the gland onto a digitation pad. The area covered by the gland is traced on the pad and considered as 100% of the area. The space covered by each of the non-regressed structures is also outlined on the digitization pad and quantitated by the computer.
Mammary gland organ culture experiment were performed as previously described (Mehta and Moon, Cancer Research, 46: 5832-5835, 1986). […]

Turning to `CCCCOC1C2OP(=O)(O)OCC2OC1n1cnc2c(N)ncnc21` (centres unmarked) [2′-O-butyl-cAMP], the “competition with cGMP (2 μM) in binding of GST-cGB-PDE5” value (shortened to “competition with cGMP (2 μM)”) in [1] (FIG. 24) is recorded as “did not compete”.
For the compound `CCCCOC1C2OP(=O)(O)OCC2OC1n1cnc2c(=O)[nH]c(N)nc21` (centres unmarked) [2′-O-butyl-cGMP], in [1] (FIG. 24), the “competition with cGMP (2 μM)” value was “did not compete”.
Still for that read-out and setting: to `Nc1nc2c(nc(Br)n2[C@@H]2O[C@@H]3COP(=O)(O)O[C@H]3[C@H]2O)c(=O)[nH]1` [Compound 8-bromo-cGMP, 8-bromo-cGMP] belongs “can partially compete”.
With `COc1cc(C=C2C(C)=C(CC(=O)O)c3cc(F)ccc32)cc(OC)c1OC` [Compound B, (Z)-5-Fluoro-2-methyl-1-(3,4,5-trimethoxybenzylidene)-3-acetic acid], the Apoptosis entry in [2] is “+++”. Also, the “competition with cGMP (2 μM)” value in [1] (FIG. 24) is “None of the PDE5 inhibitors showed any competition”. Further, the “COX-I inhibition” value in experiment [3] was “neither test compound B and E significantly inhibit COX-I”.
On to `O=C([O-])C1CCN(c2nc(NCc3ccc4c(c3)OCO4)c3cc(Cl)ccc3n2)CC1.[Na+]` [Compound E4021], for which, in [1] (FIG. 24), the “competition with cGMP (2 μM)” value is “None of the PDE5 inhibitors showed any competition”.
Turning to `COc1cc(/C=C2/C(C)=C(CC(=O)NCc3ccccc3)c3cc(F)ccc32)cc(OC)c1OC` [Compound E, (Z)-5-Fluoro-2-methyl-1-(3,4,5-trimethoxybenzylidene)-3-indenylacetamide, N-benzyl], the “competitive (with cGMP) binding to PDE5 peak A” value in experiment [4] is recorded as “does competitively (with cGMP) bind to PDE 5”. For the same compound, in experiment [5], the “competitive (with cGMP) binding to PDE peak B” value is “competitively (with cGMP) binds to PDE peak B” and the “Ratio (IC50 Peak A/Peak B)” value was found to be 1.0. Further, the Apoptosis entry in experiment [2] is “++++”. Moreover, the “competition with cGMP (2 μM)” value in experiment [1] (FIG. 24) was “None of the PDE5 inhibitors showed any competition”. Also, in experiment [3], the “COX-I inhibition” value is “neither test compound B and E significantly inhibit COX-I”.
For the compound `Nc1ncnc2c1ncn2[C@@H]1O[C@@H]2COP(=O)(O)O[C@H]2[C@H]1O` [Cyclic AMP], in [1], the “competition with cGMP (2 μM)” value is reported as “did not compete”.
As to `O=c1[nH]cnc2c1ncn2[C@@H]1O[C@@H]2COP(=O)(O)O[C@H]2[C@H]1O` [Cyclic IMP], in experiment [1] (FIG. 24), the “competition with cGMP (2 μM)” value was “can partially compete”.
As to `CC1(C)C(=O)Nc2ccc(C3=NNC(=O)CC3)cc21` [Indolidan], the “Ratio (IC50 Peak A/Peak B)” value in experiment [5] was less than 0.31.
`COc1ccc(C2CNC(=O)C2)cc1OC1CCCC1` (centres unmarked) [Rolipram]: the “effect on cAMP levels” value with HT-29 cells is recorded as “increased cAMP”.
For `CCCc1nn(C)c2c(=O)[nH]c(-c3cc(S(=O)(=O)N4CCN(C)CC4)ccc3OCC)nc12` [Sildenafil], the “inhibition of activity of peak A” value in experiment [4] is listed as “inhibited activity of peak A”.
Take `CSc1ccc(/C=C2/C(C)=C(CC(=O)O)c3cc(F)ccc32)cc1` [Sulindac sulfide]: the “cGMP PDE inhibitory activity, % Inhibition at 10 μM” value in experiment [6] (10 μM) was 97%. Moreover, in [6] (qualitative activity profile), the “PDE Inhibition” value was “+++”. Moreover, the pIC50 is 4.77 in [6] (read-out: IC50 for inhibition of cGMP PDE, cGMP PDE from HT-29 cells) and 4.39 in experiment [7]. Moreover, the “effect on cAMP levels” value with HT-29 cells was “unaffected”. In addition, the pEC50 in the experiment on HT-29 cells (Homo sapiens, 0.5 h, read-out: EC50 for increase of cGMP levels, HT-29 cells treated 30 minutes) was 5.14. The Apoptosis entry in [2] is “+++”. Moreover, the half-maximal inhibitory concentration (IC50) with HCT116, Colon stood at 45 µM; in the experiment on A-427, Lung, 90 µM. For the same compound, in experiment [8], the “inhibition of premalignant lesions in mammary gland organ culture” value was “inactive”. Besides, in experiment [1] (FIG. 24), the “competition with cGMP (2 μM)” value is on record as “None of the PDE5 inhibitors showed any competition”. In addition, in experiment [3] (qualitative activity profile), the “COX Inhibition” value is reported as “++++”. For the same compound, the inhibition at 100 µM in [3] (read-out: Cyclooxygenase inhibitory activity, % Inhibition at 100 μM) turned out to be 97%.
Consider `CCCOc1ccccc1-c1nc2nn[nH]c2c(=O)[nH]1` [Zaprinast], for which the “competition with cGMP (2 μM)” value in [1] (FIG. 24) was “None of the PDE5 inhibitors showed any competition”.
`Nc1ccn([C@@H]2O[C@@H]3COP(=O)(O)O[C@H]3[C@H]2O)c(=O)n1` [cCMP]: in [1] (FIG. 24), the “competition with cGMP (2 μM)” value is on record as “did not compete”.
The same measure, in the same setting: to `O=c1ccn([C@@H]2O[C@@H]3COP(=O)(O)O[C@H]3[C@H]2O)c(=O)[nH]1` [cUMP] belongs “did not compete”.
Turning to `CC1=C(CC(=O)O)c2cc(F)ccc2/C1=C\c1ccc([S+](C)[O-])cc1` (centres unmarked) [sulindac], the “inhibition of premalignant lesions in mammary gland organ culture” value in experiment [8] was “effectively inhibit the formation of premalignant lesions”.
